Results reported in BigSolDB 2.1.

O=S(=O)([O-])Oc1ccc(C(c2ccc(OS(=O)(=O)[O-])cc2)c2ccccn2)cc1.[Na+].[Na+]
solubility (mole fraction)
Details	in DMF	in DMSO	in acetic acid	in acetonitrile	in ethanol	in methanol	in n-butanol	in n-propanol	in water
298.15 K	0.0269	0.0049	0.0014	0.0001	0.0011	0.0096	0.0001	0.0002	0.0215
303.15 K	0.0321	0.0058	0.0019	0.0001	0.0015	0.0116	0.0002	0.0004	0.0252
308.15 K	0.0387	0.0069	0.0025	0.0003	0.0021	0.0142	0.0005	0.0007	0.0299
313.15 K	0.0463	0.0083	0.0034	0.0005	0.003	0.0178	0.0011	0.0014	0.0347
318.15 K	0.0561	0.0099	0.0046	0.001	0.0041	0.0213	0.0022	0.0028	0.0398
